Data set [1] has as its system Spontaneously Hypertensive Rats. Briefly: Test 1: antihypertensive effects (systolic tail artery blood pressure) and heart rate in spontaneously hypertensive rats, oral. Particulars: for change in vivo at 1 mg/kg: Rattus norvegicus; for Change (%) in heart rate: maximum value. It is filed as in vivo, rat (male, SHR). In outline: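 Male SHRs aged 20 weeks or older (350-430 g), with systolic pressure of 180 mmHg or higher, were used in groups of 3-4. Compounds in 0.5% methylcellulose were given orally, mostly at 1 mg/Kg. Systolic tail-artery blood pressure and heart rate were measured together as percent change.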

Another data set relates to Mouse. Description: Test 2: acute toxicity, mouse, oral. The data set is classed as in vivo, male ddy-mice. Particulars: fourteenth day. The procedure:
(§1) The acute toxicity of certain compounds of this invention were studied in the following manner.
(§2) Namely, male ddy-mice of 5 weeks of age and male Wister rats of 8 weeks of age were fasted for 18 hours and used in groups each of which was constituted of 4-5 of mice or rats. The compounds were each dissolved or suspended in a 0.5% methylcellulose solution and administered orally (P.O.). On the fourteenth day after the administration, their toxicity were judged.
(§3) Each numeral set indicates the number of dead animals/the number of teste
(§4) animals. Hyphens (--) indicate that no tests were effected.

Another data set has as its system Rat. Briefly: Test 2: acute toxicity, rat, oral. The data set is classed as in vivo, male Wister rats. Particulars: fourteenth day. The protocol:
as §1, §2, §3, §4

The nature of data set [2]: solubility in DMSO (NMR not measured). It is filed as physicochemical. Particulars: HCl salt.
Setting [3] is: SHR, oral 1 mg/Kg, 1 hour, read-out: Antihypertensive effects, change (%) in blood pressure, 1 hour later.
The mark [4] stands for this setting: SHR, oral 1 mg/Kg, 3 hours, read-out: Antihypertensive effects, change (%) in blood pressure, 3 hours later.
Where [5] appears, read: SHR, oral 1 mg/Kg, 6 hours, read-out: Antihypertensive effects, change (%) in blood pressure, 6 hours later.
Where [6] appears, read: SHR, oral 1 mg/Kg, 24 hours, read-out: Antihypertensive effects, change (%) in blood pressure, 24 hours later.

Where two headings read alike, the source gives them in different places.

This is an account of results in patent US4734418A, “Quinazoline compounds and antihypertensives” (priority 1984, dated 1988).

Turning to `CCCC(=O)N1CCCN(c2nc(N)c3cc(OC)c(OC)cc3n2)CC1` [Example E-643, Bunazosin, reference compound], the change in vivo at 1 mg/kg is -4.8% in data set [1] (setting [3]), -12% in data set [1] (setting [4]), -13.5% in data set [1] (setting [5]) and -6.7% in data set [1] (setting [6]). Also, in data set [1] (SHR, oral 1 mg/Kg), the “Change (%) in heart rate” value is listed as “+8.8%”. Also, the figures for the “Acute Toxicity, number of dead animals/number of tested animals” value with Mouse (1 g/Kg P.O.) and with Rat (1 g/Kg P.O.) were 0/5 and 2/4, respectively.

On to `COC(=O)c1cnc(N2CCN(c3nc(N)c4cc(OC)c(OC)cc4n3)CC2)nc1NC(C)C` [Example 62], for which the change in vivo at 1 mg/kg was -1.4% in data set [1] (setting [3]), -24% in data set [1] (setting [4]), -31.3% in data set [1] (setting [5]) and -21.2% in data set [1] (setting [6]). Further, in data set [1] (SHR, oral 1 mg/Kg), the “Change (%) in heart rate” value is recorded as “+7.6%”. Moreover, the “Acute Toxicity, number of dead animals/number of tested animals” value in the data set on Mouse (1 g/Kg P.O.) and with Rat (1 g/Kg P.O.) was 0/5 each time.

In the case of `COc1cc2nc(N3CCN(c4ncc5c(n4)N(C)C(=O)C5)CC3)nc(N)c2cc1OC` [Example 29], the change in vivo at 1 mg/kg in data set [1] (setting [3]) is -5.2%; in data set [1] (setting [4]), -23%; in data set [1] (setting [5]) it was -35.2%; in data set [1] (setting [6]), -13.1%. Besides, the “Change (%) in heart rate” value in data set [1] (SHR, oral 1 mg/Kg) is on record as “+10.1%”. For the same compound, the “Acute Toxicity, number of dead animals/number of tested animals” value was 0/5 in the data set with Mouse (1 g/Kg P.O.), 0/5 in the data set on Mouse (3 g/Kg P.O.), 0/5 in the data set on Rat (1 g/Kg P.O.) and 0/4 in the data set on Rat (3 g/Kg P.O.).

As for `COc1cc2nc(N3CCN(c4ncc5c(n4)CN(C)C5=O)CC3)nc(N)c2cc1OC` [Example 24], the change in vivo at 1 mg/kg in data set [1] (setting [3]) is -7.2%; in data set [1] (setting [4]), -24.8%; in data set [1] (setting [5]), -28.6%; in data set [1] (setting [6]) it was -8.7%. The “Change (%) in heart rate” value in data set [1] (SHR, oral 1 mg/Kg) is on record as “+12.0%”. The “Acute Toxicity, number of dead animals/number of tested animals” value in the data set on Mouse (1 g/Kg P.O.), in the data set with Mouse (3 g/Kg P.O.), in the data set with Rat (1 g/Kg P.O.) and in the data set on Rat (3 g/Kg P.O.) was 0/5 throughout.

For `COc1cc2nc(N3CCN(c4ncc5c(=O)n(C)ccc5n4)CC3)nc(N)c2cc1OC` [Example 4], the change in vivo at 1 mg/kg in data set [1] (setting [3]) was -4.4%; in data set [1] (setting [4]) it was -22.1%; in data set [1] (setting [5]), -26.5%; in data set [1] (setting [6]) it was -16.7%. Besides, the “Change (%) in heart rate” value in data set [1] (SHR, oral 1 mg/Kg) was “+5.7%”. The “Acute Toxicity, number of dead animals/number of tested animals” value with Mouse (1 g/Kg P.O.), with Mouse (3 g/Kg P.O.), in the data set with Rat (1 g/Kg P.O.) and with Rat (3 g/Kg P.O.) was 0/5 in each case.

Regarding `COc1cc2nc(N3CCN(C(=O)c4ccco4)CC3)nc(N)c2cc1OC` [Prazosin, prazosin, reference compound], the change in vivo at 1 mg/kg in data set [1] (po, 1 h, read-out: Antihypertensive effects, change (%) in blood pressure, 1 hour later) was -23.6%; in data set [1] (po, 3 h, read-out: Antihypertensive effects, change (%) in blood pressure, 3 hours later), -25.1%; in data set [1] (po, 6 h, read-out: Antihypertensive effects, change (%) in blood pressure, 6 hours later), -24.6%; in data set [1] (po, 24 h, read-out: Antihypertensive effects, change (%) in blood pressure, 24 hours later) it was -5%. Further, the “Change (%) in heart rate” value in data set [1] (SHR, oral 1 mg/Kg) is recorded as “+8.0%”. Further, the “Acute Toxicity, number of dead animals/number of tested animals” value in the data set with Mouse (1 g/Kg P.O.) is 0/5; in the data set with Mouse (3 g/Kg P.O.), 0/5; in the data set on Rat (1 g/Kg P.O.) it was 0/5; in the data set with Rat (3 g/Kg P.O.), 0/3.

For `CCn1ccc2nc(N3CCN(c4nc(N)c5cc(OC)c(OC)cc5n4)CC3)ncc2c1=O` [Example 1, 4-Amino-6,7-dimethoxy-2-(4-(5,6-dihydro-6-ethyl-5-oxopyrido[4,3-d]pyrimidin-2-yl)piperazino)quinazoline], the change in vivo at 1 mg/kg in data set [1] (setting [3]) was -10.7%; in data set [1] (setting [4]), -17.3%; in data set [1] (setting [5]), -23%; in data set [1] (setting [6]) it was -8.2%. Also, in data set [1] (SHR, oral 1 mg/Kg), the “Change (%) in heart rate” value was “+4.1%”. In addition, the “Acute Toxicity, number of dead animals/number of tested animals” value in the data set on Mouse (1 g/Kg P.O.), in the data set with Mouse (3 g/Kg P.O.), in the data set with Rat (1 g/Kg P.O.) and with Rat (3 g/Kg P.O.) was 0/5 in each case.

Consider `CCNc1nc(N2CCN(c3nc(N)c4cc(OC)c(OC)cc4n3)CC2)ncc1C(=O)OC.Cl` [Example 2, 4-Amino-6,7-dimethoxy-2-(4-(4-ethylamino-5-methoxycarbonylpyrimidine-2-yl)piperazino)quinazoline hydrochloride], for which the change in vivo at 1 mg/kg was -9% in data set [1] (setting [3]), -23.9% in data set [1] (setting [4]), -38.8% in data set [1] (setting [5]) and -16.4% in data set [1] (setting [6]). Moreover, the “Change (%) in heart rate” value in data set [1] (SHR, oral 1 mg/Kg) is “+18.4%”. For the same compound, the “Acute Toxicity, number of dead animals/number of tested animals” value with Mouse (1 g/Kg P.O.), in the data set on Mouse (3 g/Kg P.O.), in the data set with Rat (1 g/Kg P.O.) and in the data set on Rat (3 g/Kg P.O.) was 0/5 each time.

For the compound `COc1cc2nc(N3CCN(c4ncc5c(n4)N(C(C)C)C(=O)C5)CC3)nc(N)c2cc1OC` [Example 30], the change in vivo at 1 mg/kg in data set [1] (setting [3]) is -7.4%; in data set [1] (setting [4]) it was -24.7%; in data set [1] (setting [5]), -32.1%; in data set [1] (setting [6]) it was -8.8%. The “Change (%) in heart rate” value in data set [1] (SHR, oral 1 mg/Kg) is “+11.7%”. For the same compound, the “Acute Toxicity, number of dead animals/number of tested animals” value in the data set on Mouse (1 g/Kg P.O.) is given as 0/5.

As to `CCNC(=O)c1cnc(N2CCN(c3nc(N)c4cc(OC)c(OC)cc4n3)CC2)nc1NCC` [Example 66], the change in vivo at 1 mg/kg was -18% in data set [1] (setting [3]), -23.7% in data set [1] (setting [4]), -28.9% in data set [1] (setting [5]) and -16% in data set [1] (setting [6]). Moreover, the “Change (%) in heart rate” value in data set [1] (SHR, oral 1 mg/Kg) is “+3.8%”. In the data set on Mouse (1 g/Kg P.O.), the “Acute Toxicity, number of dead animals/number of tested animals” value is on record as 0/5.

In the case of `CCN1C(=O)CCCc2nc(N3CCN(c4nc(N)c5cc(OC)c(OC)cc5n4)CC3)ncc21` [Example 32], the change in vivo at 1 mg/kg was -20.2% in data set [1] (setting [3]), -30.5% in data set [1] (setting [4]), -35.2% in data set [1] (setting [5]) and -16.4% in data set [1] (setting [6]). The “Change (%) in heart rate” value in data set [1] (SHR, oral 1 mg/Kg) is on record as “+11.0%”. Besides, the “Acute Toxicity, number of dead animals/number of tested animals” value in the data set on Mouse (1 g/Kg P.O.) was 0/5.

As for `COc1cc2nc(N3CCN(c4ncc5c(n4)CNC5=O)CC3)nc(N)c2cc1OC` [Example 22], the change in vivo at 1 mg/kg was -1.5% in data set [1] (setting [3]), -10.1% in data set [1] (setting [4]), -17.1% in data set [1] (setting [5]) and -4% in data set [1] (setting [6]). In data set [1] (SHR, oral 1 mg/Kg), the “Change (%) in heart rate” value was “+17.7%”. The “solubility in DMSO” value in data set [2] was “insolubility”.
